The subject of the assay is CEM cells HIV-1 protection, formazan growth assay. The experiment in a line: NCI AIDS Antiviral Assay. To be noted: for pIC50: measured here: growth of uninfected CEM cells. The procedure, abridged: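 Human CEM cells, uninfected and HIV-1-infected, exposed to five drug concentrations; growth measured by soluble formazan assay and scored as percent protection from infection, with protecting compounds retested.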

pEC50, pIC50: −log10 of the molar value. “And” between values parts separate entries of the source, which are not always exact repeats. Equal values may be shown once. The source made the active and inactive calls.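 How the source made its calls: active means compounds giving half or more protection of infected cells from virus-caused growth loss, again on retest; inactive means the rest.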 Bounds are passed on as bounds.

For orientation: pEC50 means the negative decadic logarithm of the EC50, by convention in mol/L. Broadly, the pIC50 is the IC50 on a negative log10 scale, so that one unit is a factor of ten. A low value points to a high IC50. As for `CON(C)c1nc(N)c(C#N)c(C#N)c1C#N`, the pEC50 was < 3.70 and the pIC50 is 4.45. For `O=C(CC/C(CC(=O)c1ccc(Cl)cc1)=N/O)Nc1ccc(Cl)c(Cl)c1` the same measures were < 3.36 and < 3.36. Turning to `C/C=C(/C1CC2c3[nH]c4ccccc4c3CCN2C(=O)C1C(=O)OCC)[Si](C)(C)C` (stereo unspecified), the pEC50 is < 5.05 and the negative-log IC50 (pIC50) was < 5.05. For `CC(=O)CC1(O)C(=O)Nc2ccccc21` (stereo unspecified), the pEC50 was < 3.70 and the pIC50 was < 3.70.

Consider `CCc1cccc(C)c1NC(=O)CCc1nc(=S)[nH][nH]1`, for which the pEC50 is < 3.21 and the pIC50 is < 3.21.

On to `CCN1C[C@]2(C)CC[C@H](O)C34C1C(C[C@@H]32)[C@@]1(O)CC[C@H]2C[C@@H]4[C@@H]1[C@H]2O`, for which the outcome was inactive. Regarding `CC(=N\NC(=O)c1ccccc1)/C(C)=N/NC(=O)c1ccccc1`, the pEC50 is < 4.51 and the pIC50 was < 4.51. Take `C/C(=C\C(=O)O)C(=O)N(C)c1ccccc1I`: the pEC50 was < 3.70 and the pIC50 was < 3.70. For the compound `CCOC(=O)C(C)[P+](c1ccccc1)(c1ccccc1)c1ccccc1` (stereo unspecified), the pEC50 was < 3.70 and the pIC50 was 5.51. For `O=[As](O)(O)c1ccc(F)cc1` the same measures were < 3.70 and < 3.70. `Brc1ccc(CCNCCN2CCCCC2)cc1`: the pEC50 is < 3.99 and the negative logarithm of the IC50 (pIC50) was 4.53. `Clc1ccc(CSc2nnc(SCc3ccc(Cl)c(Cl)c3)c3[nH]cnc23)cc1Cl`: the pEC50 is < 3.70 and the pIC50 is 4.90. For `COc1ccc(NC(=O)/C(=C/n2c(=S)[nH]c3cc(C)ccc32)C(C)=O)cc1` the same measures were < 3.70 and < 3.70. `CCOC1N(C2CC(N=[N+]=[N-])C(CO)O2)C(=O)NC(=O)C1(C)Br` (stereo unspecified): the negative logarithm of the EC50 (pEC50) is 8.09 and 8.20; the pIC50 is 4.65 and 4.76. With `Cc1nnc(Nc2ccc(Cl)cc2)o1`, the pEC50 was < 3.70 and the pIC50 is < 3.70. Consider `O=C(CC(=O)n1nc(-c2ccccc2)c(N=Nc2ccccc2Cl)c1-c1ccccc1)Nc1ccc(Cl)cc1`, for which the pEC50 is < 4.47 and the pIC50 is < 4.47. As to `CCCCSC1=NCCCS1`, the pEC50 was < 3.56 and the pIC50 was < 3.56. Take `Cn1c(=O)c2[nH]c(N=Nc3c(N)n[nH]c3N)nc2n(C)c1=O`: the pEC50 is < 3.70 and the pIC50 was < 3.70. `COC(=O)C1CC2c3c(c4ccccc4n3C)CC(C1=O)N2C` (stereo unspecified): the result was inactive.

Consider `CC[C@]1(O)C[C@H]2CN(CCc3c([nH]c4ccccc34)[C@@](C(=O)OC)(c3cc4c(cc3OC)N(C=O)[C@H]3[C@@](O)(C(=O)OC)[C@H](OC(C)=O)[C@]5(CC)C=CCN6CC[C@]43[C@@H]65)C2)C1`, for which the pEC50 was < 7.52 and the negative logarithm of the IC50 (pIC50) was 9.28.

On to `CC1(C)OCC(C2OC3OC(C)(C)OC3C2c2ccccc2)O1` (stereo unspecified), for which the pEC50 is < 3.70 and the pIC50 is < 3.70. As to `NS(=O)(=O)c1cc2c(cc1C(F)(F)F)NCNS2(=O)=O`, the pEC50 was < 3.12 and the pIC50 was < 3.12. As to `C=CCN(N=O)C(=O)NCCCCC(NC(C)=O)C(=O)NCc1ccccc1` (stereo unspecified), the outcome was inactive.

In the case of `NC(=O)NCc1c(C(N)=O)ncn1Cc1ccccc1`, the outcome was inactive.

`O=S(O)CCCCSSCCCCS(=O)(O)=S`: the result was inactive.

Turning to `CCNC(=S)NNC(=O)C12CC3CC(CC(C3)C1)C2`, the pEC50 was < 3.70 and the pIC50 is < 3.70. As to `CCOC(=O)NCC(OS(C)(=O)=O)C(CNC(=O)OCC)OS(C)(=O)=O` (stereo unspecified), the pEC50 is < 3.92 and the pIC50 was < 3.92. Turning to `O=C(/C=C(\C(=O)c1cccs1)c1cccs1)c1ccc(C(=O)/C=C(\C(=O)c2cccs2)c2cccs2)cc1`, the pEC50 was < 3.70 and the pIC50 is < 3.70. As for `NC(=O)OCC(COc1ccc(Cl)cc1)OC(=O)c1cc([N+](=O)[O-])cc([N+](=O)[O-])c1` (stereo unspecified), the pEC50 is < 3.25 and the pIC50 is 3.40.

For `O=C(c1ccc([N+](=O)[O-])cc1[N+](=O)[O-])N(/N=C/C=C/c1ccccc1)c1nnc(-c2ccccc2)c(-c2ccccc2)n1`, the pEC50 was < 5.04 and the pIC50 is < 5.04. Take `Cc1ccc(/C=C2/N=C([Se])N(C)C2=O)cc1`: the pEC50 was < 4.73 and the pIC50 was < 4.73. Turning to `COc1c(C)c(C/C=C(\C)CCCCO)c(OC)c2ccccc12`, the pEC50 is < 3.70 and the pIC50 is 4.64. As to `CN(C)c1cc(CNCCSC(c2ccccc2)(c2ccccc2)c2ccccc2)nc(CNCCSC(c2ccccc2)(c2ccccc2)c2ccccc2)c1`, the pEC50 is < 3.70 and the pIC50 was 5.52.

With `Nc1nc(N)c2cnnn2n1`, the pEC50 is < 3.53 and the pIC50 is < 3.53. As to `Cc1cc2c(=O)c3ccccc3oc2c(C#N)c1C`, the pEC50 is < 4.70 and the pIC50 is < 4.70.

For the compound `CCOC(=O)Cc1cc(=O)[nH]c(-n2[nH]c(C)c(CCO)c2=O)n1`, the pEC50 is < 3.70 and the pIC50 is < 3.70. As to `Cc1cccc(-c2nnc3s/c(=C\c4ccc5c(c4)OCO5)c(=O)n23)c1`, the pEC50 was < 4.56 and the pIC50 is < 4.56. `O=[N+]([O-])c1ccc(Cl)cc1C1SCc2nc3ccccc3n21` (stereo unspecified): the outcome was inactive. For `COC(=O)C(Cc1nc2ccccc2[nH]c1=O)C(=O)C(=O)Nc1ccc(OC)cc1[N+](=O)[O-]` (stereo unspecified), the pEC50 was < 3.40 and the pIC50 is < 3.40. `CCOC(=O)C(/C=N/C(=S)Nc1c(C)cccc1C)=C(/O)c1ccccc1`: the pEC50 is < 3.70 and the pIC50 is < 3.70. In the case of `CCCCCCCCCCCCCCCC=C(c1cc(Br)cc(C(=O)OC)c1OC)c1cc(Br)cc(C(=O)OC)c1OC`, the pEC50 was < 4.59 and the pIC50 was < 4.59. In the case of `CC(=O)N1C(=O)C(C)(C2=CC(=O)c3ccccc3C2=O)c2ccc(Br)cc21` (stereo unspecified), the pEC50 is < 3.70 and the pIC50 is 5.64. For `Cc1nc(N)c(N2CCNCC2)c(=O)[nH]1` the same measures were < 3.70 and < 3.70. Regarding `CCOC(=O)NC(Nc1ccc(S(=O)(=O)Nc2nc(C)cc(C)n2)cc1)(C(=O)OCC)C(F)(F)F` (stereo unspecified), the pEC50 was < 3.70 and the pIC50 was < 3.70. `NC(=S)N/N=C/C(F)(F)F`: the pEC50 is < 2.84 and the pIC50 was 4.10. For `COC(=O)NN(C(=O)OC)c1c(-c2ccccc2)nc(SC)n1N` the same measures were < 3.70 and < 3.70.

For `CCOC(=O)/C(C(=S)NC)=C(/N)N1CCCC1`, the pEC50 was < 3.70 and the pIC50 is < 3.70. For the compound `O=c1[nH]c(=O)n(C2OC(CO)C(O)C2O)c(NNc2ccccc2)c1NNc1ccccc1` (stereo unspecified), the pEC50 was 3.84 and the pIC50 was < 3.70. For `O=[N+]([O-])c1ccc[c]([Sb](=[O])([OH])[OH])c1` the same measures were < 3.40 and < 3.70. In the case of `CSc1nc(-c2ccccc2)c(C#N)c(=O)[nH]1`, the result was inactive. Regarding `COc1cc2c(c(OC)c1OC)CCNC2C1=C(O)COC1=O` (stereo unspecified), the result was inactive. On to `COc1ccc(C2C(=O)C(Cl)N2Nc2nc(C)cc(=O)[nH]2)cc1OC` (stereo unspecified), for which the pEC50 was < 3.73 and the pIC50 is 4.69.
